Data: patent publication US20030104473A1, “Common ligand mimics: benzimidazoles” (priority 2001, published 2003)
Like-named read-outs stand apart in the source and are kept apart here.

Experiments:
[1] = molecular target: dihydrodipicolinate reductase (DHPR) (Escherichia coli, UniProt P04036); test: DHPR kinetic assay, spectrophotometric oxidation of NADPH at 340 nm; format: biochemical
Experimental: For DHPR analysis, the compounds were screened using a kinetic protocol that spectrophotometrically evaluates oxidation of NADPH.
Stock solutions of each of the reagents were prepared in the following concentrations. Dilutions of the stock solutions were prepared prior to running the assay in the concentrations indicated below. DHPR was diluted in 10 mM HEPES at a pH of 7.4. DHPS (dihydrodipicolinate synthase) was not diluted and was stored in eppindorf tubes.
The L-ASA (L-aspartate semialdehyde) solution was prepared in the following manner. […] stock solution of ASA was prepared. 100 μl of the ASA stock solution was mixed with 150 μl of concentrated NaHCO3 and 375 μl of H2O. For use in the assay, 28.8 mM L-ASA was equal to 625 μl of the solution. The L-ASA stock Aft solution was kept at a temperature of −20° C. After dilution, the pH of the 28.8 mM solution was checked and maintained between 1 and 2.
The DHPS reaction was monitored at 340 nm prior to and after addition of the inhibitor to detect background reaction with the inhibitor. The solution for background detection was a 945 μl solution containing 0.1 HEPES (pH 7.8), 1 mM pyruvate, 6 μM NADPH, 40 μM L-ASA, and 7 μl of 1 mg/ml DHPS at 25° C. in the volumes provided above. The sample solution was then mixed and incubated for 10 minutes. Next, 500 nM solutions of the inhibitors and enough DMSO to provide a final DMSO concentration of 5% of the total assay volume were added. The solution was mixed and incubated for an additional 6 minutes.
In DHPR samples, 5 μl of the diluted DHPR enzyme were added. The sample was mixed for 20 seconds and then the reaction was run for 10 minutes. After a 50 second lag, the samples were read in a Cary spectrophotometer at 340 nm. Reading of the samples was continued until 300 seconds. Cuvette #1 contained the control reaction (no inhibitor), and cuvette #2 contained the positive control reaction in which Cibacron Blue at 2.58 μM was substituted for inhibitor to yield 70 to 80% inhibition. The substrate was kept at a level at least 10 times the Km. The final concentration of L-ASA was about 1 mM.

[2] = molecular target: 1-deoxy-D-xylulose-5-phosphate reductase (DOXPR) (Escherichia coli, UniProt P45568); test: DOXPR kinetic assay, spectrophotometric oxidation of NADPH at 340 nm; format: biochemical; conditions: Cibacron Blue at 10.32 μM; read-out: inhibition of DOXPR (positive control)
Experimental: For DOXPR analysis, the compounds were screened using a kinetic protocol that spectrophotometrically evaluates oxidation of NADPH.
Stock solutions of each of the reagents were prepared in the following concentrations. Dilutions of the stock solutions were prepared prior to running the assay in the concentrations indicated below. DOXPR was diluted in 10 mM HEPES at a pH of 7.4.
The DOXPR reaction was monitored at 340 nm prior to and after addition of the inhibitor to detect background reaction with the inhibitor. Solutions of the inhibitors in DMSO were prepared to provide a final DMSO concentration of 5% of the total assay volume. These solutions were incubated for 6 minutes at 25° C. in a 990 μl of a solution containing 0.1 M HEPES, pH 7.4, 1 mM MnCl21.15 mM DOXP, and 8 μM NADPH. The oxidation reaction was then initiated with 10 μl of DOXP reductoisomerase (10 μg/ml). After the enzyme was added, the solution was mixed for 20 seconds, and the reaction was run for 10 minutes. After a 50 second lag, the samples were read in a Cary spectrophotometer at 340 nm. Reading of the samples was continued until 300 seconds. Cuvette #1 contained the control reaction (no inhibitor), and cuvette #2 contained the positive control reaction in which Cibacron Blue at 10.32 μM was substituted for inhibitor to yield 70 to 80% inhibition. The substrate was kept at a level at least 10 times the Km.

[3] = molecular target: T1, lactate dehydrogenase (LDH) (Oryctolagus cuniculus, UniProt P13491); test: LDH kinetic assay, spectrophotometric oxidation of NADH at 340 nm; format: biochemical, Rabbit Muscle; conditions: Cibacron Blue at 10.3 μM; read-out: inhibition of LDH (positive control)
T1 construct: 10 μl of LDH from Rabbit Muscle; from tissue; host or cells: rabbit muscle
Experimental: For LDH analysis, the compounds were screened using a kinetic protocol that spectrophotometrically evaluates oxidation of NADH.
(§1) Stock solutions of each of the reagents were prepared in the following concentrations. Dilutions of the stock solutions were prepared prior to running the assay in the concentrations indicated below.
The LDH reaction was monitored at 340 nm prior to and after addition of the inhibitor to detect background reaction with the inhibitor. Solutions of 100 μl of the inhibitors in DMSO were prepared to provide a final DMSO concentration of 5% of the total assay volume. These solutions were incubated for 6 minutes at 25° C. in a 990 μl of a solution containing 0.1 M HEPES, pH 7.4, 10 μM NADH, and 2.5 mM of pyruvate. The reaction was then initiated with 10 μl of LDH from Rabbit Muscle (0.5 μg/ml; 1:2000 dilution of 1.0 mg/ml). After the enzyme was added, the solution was mixed for 20 seconds, and the reaction was run for 10 minutes. After a 50 second lag, the samples were read in a Cary spectrophotometer at 340 nm. Reading of the samples was continued until 300 seconds. Cuvette #1 contained the control reaction (no inhibitor), and cuvette #2 contained the positive control reaction in which Cibacron Blue at 10.3 μM was substituted for inhibitor to yield 50 to 70% inhibition. The substrate was kept at a level at least 10 times the Km.

[4] = molecular target: T2, alcohol dehydrogenase (ADH) (Saccharomyces cerevisiae, UniProt P00330); test: ADH kinetic assay, spectrophotometric reduction of NAD+ at 340 nm; format: biochemical, Bakers Yeast; conditions: Cibacron Blue at 15.5 μM; read-out: inhibition of ADH (positive control)
T2 construct: 10 μl of ADH from Bakers Yeast; host or cells: baker's yeast
T2 sequence (P00330 1-348): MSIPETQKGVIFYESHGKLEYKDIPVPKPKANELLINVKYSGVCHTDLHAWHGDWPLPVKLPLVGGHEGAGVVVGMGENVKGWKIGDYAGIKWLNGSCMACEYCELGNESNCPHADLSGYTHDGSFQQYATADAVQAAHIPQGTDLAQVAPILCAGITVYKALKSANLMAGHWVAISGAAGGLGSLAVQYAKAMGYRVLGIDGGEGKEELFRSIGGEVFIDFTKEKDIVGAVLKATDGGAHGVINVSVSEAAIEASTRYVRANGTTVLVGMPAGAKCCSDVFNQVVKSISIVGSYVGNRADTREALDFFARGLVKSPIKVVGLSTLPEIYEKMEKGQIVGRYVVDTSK
Experimental: For ADH analysis, the compounds were screened using a kinetic protocol that spectrophotometrically evaluates reduction of NAD+.
as §1
The ADH reaction was monitored at 340 nm prior to and after addition of the inhibitor to detect background reaction with the inhibitor. Solutions of 100 μl of the inhibitors in DMSO were prepared to provide a final DMSO concentration of 5% of the total assay volume. These solutions were incubated for 6 minutes at 25° C. in a 990 μl of a solution containing 0.1 M HEPES, pH 8.0, 80 μM NAD+, and 130 mM of ethanol. The reaction was then initiated with 10 μl of ADH from Bakers Yeast ([…]; 1:400 dilution of 1.0 mg/ml). After the enzyme was added, the solution was mixed for 20 seconds, and the reaction was run for 10 minutes. After a 50 second lag, the samples were read in a Cary spectrophotometer at 340 nm. Reading of the samples was continued until 300 seconds. Cuvette #1 contained the control reaction (no inhibitor), and cuvette #2 contained the positive control reaction in which Cibacron Blue at 15.5 μM was substituted for inhibitor to yield 50 to 60% inhibition. The substrate was kept at a level at least 10 times the Km. The final concentration of […] was about 2.5 mM.
Where only a simple read was desired, as in the case of NAD+ concentration determination, 13 μl (10 M stock) of ethanol was used to drive the reaction, and 10 μl of pure enzyme (1 mg/ml) was used. NAD+was soluble at 2 mM, which allowed the concentration determination step to be skipped. In this situation, the procedure was as follows. All of the ingredients except for the enzyme were mixed together. The solution was mixed well and the absorbance at 340 nm read. The enzyme was added and read again at OD 340 after the absorbance stopped changing, generally 10 to 15 minutes after the enzyme was added.

[5] = Example 14, common ligand mimics (FIG. 8), read-out: IC50 for DHPR
[6] = Example 15, bi-ligands (FIG. 9), read-out: IC50 value for dihydrodipicolinate reductase (DHPR)

Sequence of dihydrodipicolinate reductase (DHPR) (P04036 whole entry): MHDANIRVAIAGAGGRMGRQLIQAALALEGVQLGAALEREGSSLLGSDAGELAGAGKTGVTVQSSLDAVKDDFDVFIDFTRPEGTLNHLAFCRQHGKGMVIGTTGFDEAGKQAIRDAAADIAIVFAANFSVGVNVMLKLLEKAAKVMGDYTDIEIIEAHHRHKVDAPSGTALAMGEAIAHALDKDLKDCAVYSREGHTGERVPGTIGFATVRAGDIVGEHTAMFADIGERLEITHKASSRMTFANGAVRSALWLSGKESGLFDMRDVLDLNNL
Sequence of 1-deoxy-D-xylulose-5-phosphate reductase (DOXPR) (P45568 whole entry): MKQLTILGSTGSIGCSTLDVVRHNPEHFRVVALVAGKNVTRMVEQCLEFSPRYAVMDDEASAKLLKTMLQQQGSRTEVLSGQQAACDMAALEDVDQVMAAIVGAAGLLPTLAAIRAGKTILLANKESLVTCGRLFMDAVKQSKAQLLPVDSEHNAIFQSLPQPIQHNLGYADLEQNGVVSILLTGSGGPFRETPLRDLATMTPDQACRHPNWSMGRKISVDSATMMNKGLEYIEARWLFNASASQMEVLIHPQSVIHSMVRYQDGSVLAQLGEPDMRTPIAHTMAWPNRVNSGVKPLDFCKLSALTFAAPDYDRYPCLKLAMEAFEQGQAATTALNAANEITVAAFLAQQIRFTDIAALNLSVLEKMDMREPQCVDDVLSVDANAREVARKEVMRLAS

Compound: Cc1cccc2[nH]c(-c3ccc(-c4ccc(C(=O)O)cc4)o3)nc12 [compound 6a, 4-[5-(4-methyl-1H-benzimidazol-2-yl)-furan-2-yl]-benzoic acid]
- IC50 [1, 5]: > 100 µM

Compound: Nc1c(S(=O)(=O)O)cc(Nc2ccc(Nc3nc(Cl)nc(Nc4ccccc4S(=O)(=O)O)n3)c(S(=O)(=O)O)c2)c2c1C(=O)c1ccccc1C2=O [Cibacron Blue, reference compound]
- inhibition at 10.32 µM [2]: 70 to 80%
- inhibition at 2.58 µM ([1]; Cibacron Blue at 2.58 μM, read-out: inhibition of DHPR (positive control)): 70 to 80%
- inhibition at 10.3 µM [3]: 50 to 70%
- inhibition at 15.5 µM [4]: 50 to 60%

Compound: O=C(NCCSc1cc(C(=O)O)nc(C(=O)O)c1)c1ccc(-c2ccc(-c3nc4cc([N+](=O)[O-])ccc4[nH]3)o2)cc1 [compound 21a, 4-(2-{4-[5-(5-nitro-1H-benzoimidazol-2-yl)-furan-2-yl]-benzoylamino)-ethylsulfanyl)-pyridine-2,6-dicarboxylic acid]
- IC50 [1, 6]: ~0.758 µM

Compound: Cc1ccc2[nH]c(-c3ccc(-c4ccc(C(=O)O)cc4)o3)nc2c1 [compound 6c, 4-[5-(5-methyl-1-benzoimidazol-2-yl)furan-2-yl]-benzoic acid]
- IC50 [1, 5]: > 60 µM

Compound: O=C(NCCSc1cc(C(=O)O)nc(C(=O)O)c1)c1ccc(-c2ccc(-c3nc4ccccc4[nH]3)o2)cc1 [compound 21b, 4-(2-{4-[5-(1H-benzoimidazol-2-yl)-furan-2-yl]-benzoylamino}-ethylsulfanyl)-pyridine-2,6-dicarbolxylic acid]
- IC50 [1, 6]: > 1.6 µM

Compound: COC(=O)c1ccc(-c2ccc(-c3nc4cc([N+](=O)[O-])ccc4[nH]3)o2)cc1 [4-[5-(5-nitro-1H-benzoimidazol-2-yl)-furan-2-yl]-benzoic acid methyl ester]
- IC50 [1, 5]: > 25 µM
